From ChEMBL document CHEMBL1201862, “PubChem BioAssay data set” (2004)
Several values for one entry are separate records, joined by “and”; a condition that tells them apart may be missing. Equal values may be shown once.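 Dose response: 5 concentrations. Exposure: 48 h. Format: 96-well plates. Endpoint: linear interpolation; highest concentration if not reached. The concentration for 50% growth inhibition is given as GI50.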 Activity calls are given as the source filed them. Cut-off read from the data, not from the text of the source: active = GI50 up to about 1.1 µM and inactive = higher.

Key:
Experiment in all cases: DTP human tumour cell line panel, 48 h
[1] = tested on: RXF 393
[2] = tested on: M19-MEL
[3] = tested on: NCI-H522
[4] = tested on: RPMI-8226
[5] = tested on: SNB-78
[6] = tested on: OVCAR-4
[7] = tested on: M14
[8] = tested on: SNB-75
[9] = tested on: SF-539
[10] = tested on: DMS-114
[11] = tested on: CAKI-1
[12] = tested on: DMS-273
[13] = tested on: HT-29
[14] = tested on: CCRF-CEM
[15] = tested on: OVCAR-8
[16] = tested on: MOLT-4
[17] = tested on: HCT-116
[18] = tested on: U-251
[19] = tested on: SW-620
[20] = tested on: HOP-92
[21] = tested on: LXFL 529
[22] = tested on: NCI-H23
[23] = tested on: HCT-15
[24] = tested on: HL-60
[25] = tested on: SNB-19
[26] = tested on: SK-MEL-5
[27] = tested on: MDA-MB-231
[28] = tested on: UACC-62
[29] = tested on: OVCAR-5
[30] = tested on: UACC-257
[31] = tested on: NCI-H460
[32] = tested on: K562
[33] = tested on: NCI-H226
[34] = tested on: NCI/ADR-RES
[35] = tested on: ACHN
[36] = tested on: SK-MEL-2
[37] = tested on: MCF7
[38] = tested on: A549
[39] = tested on: 786-0
[40] = tested on: SR
[41] = tested on: COLO 205
[42] = tested on: SK-OV-3
[43] = tested on: MDA-MB-435
[44] = tested on: T47D
[45] = tested on: EKVX
[46] = tested on: HOP-62
[47] = tested on: SK-MEL-28
[48] = tested on: UO-31
[49] = tested on: SN12C
[50] = tested on: PC-3
[51] = tested on: SF-268
[52] = tested on: A498
[53] = tested on: Hs-578T
[54] = tested on: SF-295
[55] = tested on: MDA-N
[56] = tested on: KM12
[57] = tested on: TK-10
[58] = tested on: IGROV-1
[59] = tested on: BT-549
[60] = tested on: DU-145
[61] = tested on: Malme-3M
[62] = tested on: HCC 2998
[63] = tested on: LOX IMVI
[64] = tested on: OVCAR-3

Measured: GI50

NCCSSC/C=C\CSSCCN
inactive: [1] 54.1 µM and 35.9 µM | [2] 50.9 µM and 29.4 µM | [3] 15.7 µM and 15.5 µM | [4] 26.2 µM and 21.9 µM | [5] 35.2 µM and 28.4 µM | [6] 18.8 µM and 26.7 µM | [7] 17.8 µM and 31.5 µM | [8] 34.8 µM and > 53.3 µM | [9] 29.6 µM and 18.1 µM | [10] 30.8 µM and 20 µM | [11] 33.7 µM and 38.8 µM | [12] 41.1 µM and 22 µM | [13] 26.6 µM and 34.6 µM | [14] 5560 nM | [15] 17.6 µM and 27.2 µM | [16] 18.6 µM and 15.5 µM | [17] 40.3 µM and 36.8 µM | [18] 34.4 µM and 20.6 µM | [19] 16.2 µM and 13.5 µM | [20] 38 µM and 41.6 µM | [21] 23.9 µM and 20.1 µM | [22] 29.6 µM and 40.7 µM | [24] 7.06 µM and 14.1 µM
46900 nM and 34300 nM: [23]

COc1ccc2c3c1OC1C(=O)C=CC4(O)C(C2)NCC[C@@]314 (stereo partly drawn)
active: [3] 556 nM | [44] 968 nM | [14] 574 nM | [19] 1.11 µM | [61] 964 nM
2110 nM: [23]
inactive: [25] 5550 nM | [26] 4160 nM | [1] 1.39 µM | [27] 2950 nM | [28] 3440 nM | [29] 2460 nM | [30] 1770 nM | [31] 3370 nM | [32] 2510 nM | [33] 8750 nM | [34] 4000 nM | [35] 2230 nM | [36] 2400 nM | [4] 1.12 µM | [37] 1980 nM | [38] 4610 nM | [39] 1580 nM | [40] 1760 nM | [6] 2.62 µM | [41] 1440 nM | [7] 2.3 µM | [42] 3180 nM | [43] 1400 nM | [45] 2300 nM | [46] 2390 nM | [8] 1.25 µM | [9] 1.55 µM | [47] 2920 nM | [11] 2.13 µM | [48] 2100 nM | [49] 1510 nM | [13] 2.54 µM | [50] 3300 nM | [15] 1.69 µM | [16] 1.28 µM | [51] 2070 nM | [52] 3290 nM | [53] 2190 nM | [17] 1.73 µM | [54] 3690 nM | [55] 1260 nM | [18] 2.13 µM | [56] 2840 nM | [57] 1680 nM | [58] 5710 nM | [20] 5.26 µM | [22] 2.03 µM | [59] 1950 nM | [60] 3240 nM | [62] 2100 nM | [63] 1910 nM | [24] 1.8 µM | [64] 1520 nM
